Laboratory results reported in ChEMBL document CHEMBL2016467, “Thiosemicarbazone fragment embedded within 1,2,4-triazole ring as inhibitors of Entamoeba histolytica” (Bioorg Med Chem Lett, 2012).

System: MCF7
Experiment: Cytotoxicity against human MCF7 cells after 48 hrs by MTT assay
Assay type: cell-based
Conditions: MCF7, 48 h

Row | SMILES | IC50 [nM]
1 | Cc1ccc(/C=N/n2c(S)nnc2-c2ccccc2)cc1 | > 250000
2 | COc1ccc(/C=N/n2c(S)nnc2-c2ccccc2)cc1 | > 250000
3 | O=[N+]([O-])c1ccc(/C=N/n2c(S)nnc2-c2ccccc2)cc1 | > 250000
4 | CN(C)c1ccc(/C=N/n2c(S)nnc2-c2ccccc2)cc1 | > 250000
5 | Cc1ncc([N+](=O)[O-])n1CCO [METRONIDAZOLE] | > 250000

System: MCF7
Experiment: Cytotoxicity against human MCF7 cells assessed as cell viability at 250 uM after 48 hrs by MTT assay
Assay type: cell-based
Conditions: mcf7, 48 h

Row | SMILES | Activity
6 | Cc1ccc(/C=N/n2c(S)nnc2-c2ccccc2)cc1 | Non-toxic
7 | COc1ccc(/C=N/n2c(S)nnc2-c2ccccc2)cc1 | Non-toxic
8 | O=[N+]([O-])c1ccc(/C=N/n2c(S)nnc2-c2ccccc2)cc1 | Non-toxic
9 | CN(C)c1ccc(/C=N/n2c(S)nnc2-c2ccccc2)cc1 | Non-toxic
10 | Cc1ncc([N+](=O)[O-])n1CCO [METRONIDAZOLE] | Non-toxic

System: not listed separately
Experiment: Cytotoxicity against human MCF7 cells assessed as cell viability at 2.5 to 100 uM after 48 hrs by MTT assay
Assay type: cell-based
Conditions: read-out: Activity

Row | SMILES | viability at 48 h, up to 100 µM [%]
11 | Cc1ccc(/C=N/n2c(S)nnc2-c2ccccc2)cc1 | 65
12 | COc1ccc(/C=N/n2c(S)nnc2-c2ccccc2)cc1 | 60
13 | O=[N+]([O-])c1ccc(/C=N/n2c(S)nnc2-c2ccccc2)cc1 | 60
14 | CN(C)c1ccc(/C=N/n2c(S)nnc2-c2ccccc2)cc1 | 65
15 | Cc1ncc([N+](=O)[O-])n1CCO [METRONIDAZOLE] | > 70

System: Entamoeba histolytica
Experiment: Antiamoebic activity against Entamoeba histolytica HM-1:IMSS trophozoites after 72 hrs by microdilution method
Assay type: functional, organism-based
Conditions: not given

Row | SMILES | IC50 [nM]
16 | COc1cc(/C=N/n2c(S)nnc2-c2ccccc2)cc(OC)c1OC | 2700
17 | Cc1ccc(/C=N/n2c(S)nnc2-c2ccccc2)cc1 | 1380
18 | FC(F)(F)c1ccccc1/C=N/n1c(S)nnc1-c1ccccc1 | 4680
19 | S=C(N1CCC(Cc2ccccc2)CC1)N1CCC(c2cccc(Cl)c2)=N1 | 1000
20 | Cc1nnc2n(NC(=S)NC34CC5CC(CC(C5)C3)C4)c(C)nnc1-2 | 840
21 | NNC(N)=S [THIOSEMICARBAZIDE] | 2290

Continued, values first:

Row | IC50 [nM] | SMILES
22 | 10800 | Nn1c(S)nnc1-c1ccccc1
23 | 10200 | Oc1ccc(/C=N/n2c(-c3ccccc3)n[nH]c2=S)cc1
24 | 9550 | S=c1[nH]nc(-c2ccccc2)n1/N=C/c1ccc(Cl)cc1
25 | 8790 | COc1ccc(OC)c(/C=N/n2c(S)nnc2-c2ccccc2)c1
26 | 3050 | COc1cc(/C=N/n2c(-c3ccccc3)n[nH]c2=S)ccc1O
27 | 1710 | O=[N+]([O-])c1ccc(/C=N/NC(=S)N2CCCCCCC2)s1
28 | 322 | COc1ccc(/C=N/n2c(S)nnc2-c2ccccc2)cc1
29 | 309 | CN(C)c1ccc(/C=N/n2c(S)nnc2-c2ccccc2)cc1
30 | 280 | O=[N+]([O-])c1ccc(/C=N/n2c(S)nnc2-c2ccccc2)cc1
